How the values were obtained:
Test in all cases: Test E pre-/postemergence herbicide test
[1] = system: annual bluegrass; assay type: in vivo, Poa annua
Method in brief: (§1)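 Pre-/postemergence spray, solvent + surfactant vehicle; post timing 1- to 4-leaf stage (2–18 cm). Greenhouse 12–14 d. Visual score 0 (no effect) to 100 (complete control) relative to controls.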

[2] = system: common ragweed; assay type: in vivo, Ambrosia elatior
Method in brief: as §1

[3] = system: large crabgrass; assay type: in vivo, Digitaria sanguinalis
Method in brief: as §1

[4] = system: broadleaf signalgrass; assay type: in vivo, Brachiaria platyphylla
Method in brief: as §1

[5] = system: prickly sida; assay type: in vivo, Sida spinosa
Text: Seeds of plant species selected from bipinnate beggarticks (Bidens bipinnata L.), hairy beggarticks (Bidens radiata Thuill.), bermudagrass (Cynodon dactylon (L.) Pers.), Surinam grass (Urochloa decumbens (Staph) R. D. Webster, previously named Brachiaria decumbens Stapf), large crabgrass (Digitaria sanguinalis (L.) Scop.), green foxtail (Setaria viridis (L.) P. Beauv.), goosegrass (Eleusine indica (L.) Gaertn.), johnsongrass (Sorghum halepense (L.) Pers.), kochia (Kochia scoparia (L.) Schrad.), pitted morningglory (Ipomoea lacunosa L.), purple nutsedge (Cyperus rotundus L.), common ragweed (Ambrosia elatior L.), mustard (Brassica nigra (L.) W. D. J. Koch), guineagrass (Panicum maximum Jacq.), dallisgrass (Paspalum dilatatum Poir.), barnyardgrass (Echinochloa crus-galli (L). P. Beauv.), southern sandbur (Cenchrus echinatus L.), common sowthistle (Sonchus oleraceous L.), prickly sida (Sida spinosa L.), Italian ryegrass (Lolium multiflorum Lam.), common purslane (Portulaca oleracea L.), broadleaf signalgrass (Brachiaria platyphylla (Griseb.) Nash), common groundsel (Senecio vulgaris L.), common chickweed (Stellaria media (L.) Vill/Cyr.), tropical spiderwort (Commelina benghalensis L.), annual bluegrass (Poa annua L.), downy bromegrass (Bromus tectorum L.), itchgrass (Rottboellia cochinchinensis (L.) L.f.), quackgrass (Elytrigia repens (L.) Nevski), Canada horseweed (Erigeron Canadensis L.), field bindweed (Convolvulus arvensis L.), spotted spurge (Euphorbia maculata L.), common mallow (Malva sylvestris (=s silvestris) L.), and Russian thistle (Salsola kali L. ssp. Ruthenica (Iljin) Soo) were planted and treated preemergence with test chemicals formulated in a non-phytotoxic solvent mixture which included a surfactant.
At the same time, plants selected from these weed species were treated with postemergence applications of some of the test chemicals formulated in the same manner. Plants ranged in height from 2 to 18 cm (1- to 4-leaf stage) for postemergence treatments. Treated plants and controls were maintained in a greenhouse for 12 to 14 days, after which time all species were compared to controls and visually evaluated. Plant response ratings, summarized in Table E, are based on a scale of 0 to 100 where 0 is no effect and 100 is complete control. A dash (-) response means no test result.

[6] = system: common chickweed; assay type: in vivo, Stellaria media
Method in brief: as §1

[7] = system: bermudagrass; assay type: in vivo, Cynodon dactylon
Method in brief: as §1

[8] = system: Surinam grass; assay type: in vivo, Urochloa decumbens
Method in brief: as §1

[9] = system: common mallow; assay type: in vivo, Malva sylvestris
Method in brief: as §1

[10] = system: common sowthistle; assay type: in vivo, Sonchus oleraceous
Method in brief: as §1

[11] = system: tropical spiderwort; assay type: in vivo, Commelina benghalensis
Method in brief: as §1

[12] = system: dallisgrass; assay type: in vivo, Paspalum dilatatum
Method in brief: as §1

[13] = system: downy bromegrass; assay type: in vivo, Bromus tectorum
Method in brief: as §1

[14] = system: quackgrass; assay type: in vivo, Elytrigia repens
Method in brief: as §1

[15] = system: Russian thistle; assay type: in vivo, Salsola kali
Method in brief: as §1

[16] = system: guineagrass; assay type: in vivo, Panicum maximum
Method in brief: as §1

[17] = Postemergence, 500 g ai/ha, scale 0 to 100
[18] = Postemergence, 250 g ai/ha, scale 0 to 100
[19] = Preemergence, 62 g ai/ha, scale 0 to 100
[20] = Preemergence, 125 g ai/ha, scale 0 to 100
[21] = Preemergence, 250 g ai/ha, scale 0 (no effect) to 100 (complete control)
[22] = Preemergence, 500 g ai/ha, scale 0 (no effect) to 100 (complete control)
[23] = postemergence, 125 g ai/ha, scale 0 to 100

CCNC(=O)c1ccnc(NC(=O)c2cc(C(C)(C)C)nn2CC)c1 [Compound 152]
Plant response rating, Bluegrass [1, 17]: 85
Plant response rating, Bluegrass [1, 18]: 85
Plant response rating, Bluegrass [1, 19]: 60
Plant response rating, Bluegrass [1, 20]: 80
Plant response rating, Bluegrass [1, 21]: 95
Plant response rating, Bluegrass [1, 22]: 95
Plant response rating, Bluegrass [1, 23]: 60
Plant response rating, Ragweed [2, 17]: 75
Plant response rating, Ragweed [2, 18]: 60
Plant response rating, Ragweed [2, 19]: 20
Plant response rating, Ragweed [2, 20]: 60
Plant response rating, Ragweed [2, 21]: 80
Plant response rating, Ragweed [2, 22]: 80
Plant response rating, Ragweed [2, 23]: 50
Plant response rating, Crabgrass, Large [3, 17]: 80
Plant response rating, Crabgrass, Large [3, 18]: 75
Plant response rating, Crabgrass, Large [3, 19]: 40
Plant response rating, Crabgrass, Large [3, 20]: 70
Plant response rating, Crabgrass, Large [3, 21]: 100
Plant response rating, Crabgrass, Large [3, 22]: 100
Plant response rating, Crabgrass, Large [3, 23]: 60
Plant response rating, Signalgrass [4, 17]: 70
Plant response rating, Signalgrass [4, 18]: 60
Plant response rating, Signalgrass [4, 19]: 10
Plant response rating, Signalgrass [4, 20]: 40
Plant response rating, Signalgrass [4, 21]: 70
Plant response rating, Signalgrass [4, 22]: 80
Plant response rating, Signalgrass [4, 23]: 20
Plant response rating, Prickly Sida [5, 17]: 85
Plant response rating, Prickly Sida [5, 18]: 60
Plant response rating, Prickly Sida [5, 19]: 20
Plant response rating, Prickly Sida [5, 20]: 20
Plant response rating, Prickly Sida [5, 21]: 60
Plant response rating, Prickly Sida [5, 22]: 95
Plant response rating, Chickweed [6, 17]: 100
Plant response rating, Chickweed [6, 19]: 90
Plant response rating, Chickweed [6, 20]: 95
Plant response rating, Chickweed [6, 21]: 100
Plant response rating, Chickweed [6, 22]: 100
Plant response rating, Bermudagrass [7, 17]: 75
Plant response rating, Bermudagrass [7, 18]: 75
Plant response rating, Bermudagrass [7, 19]: 70
Plant response rating, Bermudagrass [7, 20]: 90
Plant response rating, Bermudagrass [7, 21]: 95
Plant response rating, Bermudagrass [7, 22]: 95
Plant response rating, Bermudagrass [7, 23]: 40
Plant response rating, Surinam Grass [8, 17]: 80
Plant response rating, Surinam Grass [8, 18]: 60
Plant response rating, Surinam Grass [8, 19]: 20
Plant response rating, Surinam Grass [8, 20]: 50
Plant response rating, Surinam Grass [8, 22]: 80
Plant response rating, Surinam Grass [8, 23]: 30
Plant response rating, Mallow [9, 17]: 50
Plant response rating, Mallow [9, 18]: 50
Plant response rating, Mallow [9, 19]: 40
Plant response rating, Mallow [9, 20]: 80
Plant response rating, Mallow [9, 21]: 90
Plant response rating, Mallow [9, 22]: 90
Plant response rating, Sowthistle [10, 17]: 100
Plant response rating, Sowthistle [10, 18]: 90
Plant response rating, Sowthistle [10, 19]: 80
Plant response rating, Sowthistle [10, 20]: 80
Plant response rating, Sowthistle [10, 21]: 95
Plant response rating, Sowthistle [10, 22]: 95
Plant response rating, Spiderwort [11, 17]: 80
Plant response rating, Spiderwort [11, 18]: 10
Plant response rating, Spiderwort [11, 19]: 10
Plant response rating, Spiderwort [11, 20]: 20
Plant response rating, Spiderwort [11, 21]: 75
Plant response rating, Spiderwort [11, 22]: 80
Plant response rating, Dallisgrass [12, 17]: 75
Plant response rating, Dallisgrass [12, 18]: 75
Plant response rating, Dallisgrass [12, 19]: 50
Plant response rating, Dallisgrass [12, 20]: 80
Plant response rating, Dallisgrass [12, 21]: 85
Plant response rating, Dallisgrass [12, 22]: 95
Plant response rating, Dallisgrass [12, 23]: 30
Plant response rating, Bromegrass, Downy [13, 17]: 80
Plant response rating, Bromegrass, Downy [13, 18]: 75
Plant response rating, Bromegrass, Downy [13, 19]: 0
Plant response rating, Bromegrass, Downy [13, 20]: 30
Plant response rating, Bromegrass, Downy [13, 21]: 60
Plant response rating, Bromegrass, Downy [13, 22]: 90
Plant response rating, Quackgrass [14, 17]: 80
Plant response rating, Quackgrass [14, 18]: 80
Plant response rating, Quackgrass [14, 19]: 10
Plant response rating, Quackgrass [14, 20]: 20
Plant response rating, Quackgrass [14, 21]: 50
Plant response rating, Quackgrass [14, 22]: 60
Plant response rating, Quackgrass [14, 23]: 70
Plant response rating, Thistle [15, 17]: 80
Plant response rating, Thistle [15, 18]: 80
Plant response rating, Thistle [15, 19]: 20
Plant response rating, Thistle [15, 20]: 20
Plant response rating, Thistle [15, 22]: 100
Plant response rating, Guineagrass [16, 17]: 80
Plant response rating, Guineagrass [16, 18]: 70
Plant response rating, Guineagrass [16, 19]: 20
Plant response rating, Guineagrass [16, 20]: 50
Plant response rating, Guineagrass [16, 21]: 80
Plant response rating, Guineagrass [16, 22]: 100

— patent US20060069132A1, “Azolecarboxamide herbicides” (priority 2004, published 2006)
